# Measured values from paper PMC7904827 (Scientific Reports, 2021).
# Counter-ions that a name gives are not always drawn.
# How the values were obtained:
# [1] = tested on: neonatal ventricular cardiomyocytes (NVCMs); experiment: In vitro cardioprotection bioassay against daunorubicin toxicity (LDH release); assay type: cell-based, rat; conditions: 3 h preincubation, DAU 1.2 µM, LDH release after 48 h
# Experimental: NVCMs were isolated in-house from 1- to 3-day-old Wistar rats as described previously. The use of animals and experimental protocols were approved by Charles University, Faculty of Pharmacy Animal Welfare Committee. All experiments were performed in accordance with Directive 2010/63/EU on the Protection of Animals Used for Scientific Purposes and in compliance with Animal Research: Reporting of In Vivo Experiments (ARRIVE) guidelines. Newly isolated cardiomyocytes were left for 40 h to form a monolayer of spontaneously beating cardiomyocytes in seeding medium (DMEM/F12 supplemented with 10% HS, 5% FBS, 4% PYR and 1% P/S), which was then replaced with culture medium (DMEM/F12 supplemented with 5% FBS, 4% PYR and 1% P/S). The medium was replaced again after 24 h for new culture medium.
# After 3 h, DAU solution (1.2 µM) was added to the media. After another 3 h, the medium was replaced with new (drug-free) exposure medium, and the cardiomyocytes were then kept until the end of the experiment. In addition to cytoprotective properties, the toxicity of the studied agent was also examined; this experiment was performed as described above with only the DAU addition step omitted.
# Forty-five hours after the last medium exchange, a sample of medium was taken from each well to assess lactate dehydrogenase (LDH) activity[27]–[29]. For details, see the Supplementary material.
# 1.5 LDH activity evaluation
# The control wells were treated with lysis buffer (0.1 M potassium phosphate, 1% Triton
# X-100, 1 mM DTT, 2 mM EDTA; pH 7.8; 15 min; room temperature) to measure the total
# cellular LDH level (sum of the activity in the control medium and the lysate). The activity of
# LDH was assayed in Tris-HCl buffer (pH 8.9) containing 35 mM sodium lactate and 5 mM
# NAD+. The rate of NAD+ reduction was monitored spectrophotometrically at 340 nm for 2 min.
# The slope of the linear region and molar absorption coefficient e = 6.22*10 3 M/cm were used
# to calculate the LDH activity, and the data were expressed as a percentage of total L DH activity. […]
# [2] = Approximate solubility in distilled water at room temperature; assay type: physicochemical; conditions: distilled water, room temperature
# Experimental: The syntheses of the target prodrugs were performed according to a known three-step procedure with some modifications. Target prodrugs GK-667, GK-678 and GK-691 were obtained in 34%, 37% and 17% overall yields, respectively. […] The resulting solutions remained physically stable for at least two hours at room temperature.
# [3] = In vivo pharmacokinetic study of GK-667 in rabbits, noncompartmental analysis; set-up: species or system rabbit
# Experimental: GK-667 was freshly dissolved in saline (5 mg/mL) before each administration. New Zealand White male rabbits (n = 6, ∼3.8 kg) received GK-667 (5 mg/kg) administered as a single slow (2 min) intravenous dose bolus to the ear marginal vein. Blood (∼1 mL) was sampled from veins on the contralateral ear at selected time points after drug administration (5 min to 9 h) into BD Vacutainers (BD Biosciences, Plymouth, UK) containing lithium heparin. Collected blood samples were immediately centrifuged (2 min, 3000 rpm, 4 °C), and plasma samples were harvested directly.
# Plasma samples taken 0 to 20 min after GK-667 administration were immediately processed by the addition of formic acid and precipitation with ice-cold methanol. The supernatants were then analyzed for all analytes, including the intact prodrug. This was essential to ensure the appropriate determination of highly labile GK-667 at the first sampling intervals, and the whole procedure was validated for this purpose. […] Thus, all following plasma samples were immediately shock-frozen in liquid nitrogen and stored at -80 °C until analysis.
# For drug administration and blood sampling, light anesthesia was induced in rabbits with a mixture of ketamine (25 mg/kg, i.m.) and midazolam (2.5 mg/kg, i.m.); sedation was then maintained with midazolam when needed. The blood withdrawn from the animals was compensated with an appropriate volume of sterile saline. All in vivo experiments and procedures were approved and supervised by the Animal Welfare Committee of the Faculty of Medicine in Hradec Kralove (Charles University), and the experiments were performed in compliance with the ARRIVE guidelines.
# Standard noncompartmental analysis was performed using Kinetica software (version 4.0, Thermo Fisher Scientific Inc., USA). The population parameter estimation for nonlinear mixed effect models was conducted using Monolix version 2019R2 software (Antony, France: Lixoft SAS, 2019, http://lixoft.com/products/monolix/). The stochastic approximation expectation maximization (SAEM) algorithm coupled with Markov Chain Monte Carlo (MCMC) without the use of approximations (linearization) was used for the estimation of the likelihood. For evaluation of the goodness-of-fit, the following plots were assessed: observed versus individual predicted concentrations, weighted residuals versus time and weighted residuals versus predictions. Individual parameter values were obtained as empirical Bayes estimates. A visual predictive check with 1000 simulated data sets was performed.
structure (smiles),measurement,setting,value
"C[C@H]([C@H](C)N1CC(=O)N(COC(=O)CN)C(=O)C1)N1CC(=O)N(COC(=O)CN)C(=O)C1 [GK-667, meso-2,3-bis(4-(2-aminoacetoxymethyl)-3,5-dioxopiperazin-1-yl)butane tetrahydrochloride]",lowest concentration with significant protection against DAU-induced toxicity,[1],matched the results of ICRF-193
same,solubility,[2],~20 mg/mL
same,Cmax,"[3]; male, New Zealand White, rabbit, plasma, iv, 5 mg/kg, rabbits n = 6, GK-667 5 mg/kg i.v., NCA",2700 nM
same,Tmax,"[3]; male, New Zealand White, rabbit, plasma, iv, rabbits n = 6, GK-667 5 mg/kg i.v., NCA, read-out: Tmax (converted)",5 min
same,concentration at 5 min,"[3]; male, New Zealand White, rabbit, plasma, iv, rabbits, GK-667 5 mg/kg i.v., 5th min, read-out: mean plasma concentration of the prodrug",2700 nM
same,concentration at 10 min,"[3]; male, New Zealand White, rabbit, plasma, iv, rabbits, GK-667 5 mg/kg i.v., 10th min, read-out: mean plasma concentration of the prodrug",400 nM
same,concentration at 20 min,"[3]; male, New Zealand White, rabbit, plasma, iv, rabbits, GK-667 5 mg/kg i.v., 20 min, in all but one animal, read-out: plasma concentration of the prodrug (below LLOQ)",< 100 nM
same,time to essentially complete clearance of the parent compound from plasma,"[3]; rabbits, after injection of GK-667",≤ 10 min
